Experimental data from US11124490B2, “Autotaxin inhibitors” (UNIVERSITY OF TENNESSEE RESEARCH FOUNDATION, priority 2016, dated 2021).
“And” between values parts separate entries of the source, which are not always exact repeats. Equal entries are not always repeated.

Columns and labels:
human recombinant ATX [1] = molecular target: T1, human recombinant ATX (Homo sapiens (Human), UniProt Q13822); experiment: ATX inhibition, hydrolysis of FRET substrate FS-3; assay type: biochemical; conditions: for IC50: 1 μM FS-3, 4 nM human recombinant ATX, 1 hour time point, read-out: IC50 (nM ± SD) vs FS-3
Procedure: (§1) ATX Generation: Human recombinant ATX was expressed as published previously, using Sf9 Spodoptera frugiperda ovary cells (Invitrogen, Carlsbad, Calif.).^13 Suspension cells were grown to a 1 liter quantity at a concentration of 1×10^6 cells/ml in Sf-900 III serum-free medium (Invitrogen) supplemented with 50 U/ml penicillin and 50 μg/ml streptomycin at 27° C. with agitation. Cells were then infected with high-titer baculovirus generated via Bac-to-Bac Baculovirus Expression System (Invitrogen) using the pCMV5 mammalian expression vector containing the C-terminal FLAG-tagged human ATX sequence (a generous gift from Dr. Junken Aoko, ohoku University, Aoba-ku, Sendai, Japan) subcloned into the pFastBacl transfer vector. […] Resultant ATX was then concentrated via centrifugation in Amicon Ultra 30,000 molecular weight cut off filter units (Millipore, Billerica, Mass.) and subsequent buffer exchange into storage buffer comprised of 50 mM Tris, pH 7.4 with 20% (v/v) ethylene glycol. Protein was held at −80° C. for long-term storage.
(§2) ATX Inhibition: ATX activity was assessed via hydrolysis of the synthetic, lipid-like FRET-based substrate FS-3 (Echelon Biosciences, Salt Lake City, Utah) or via hydrolysis of the nucleotide substrate p-nitrophenyl thymidine 5′-monophosphate (pNP-TMP) as described previously.^2 Reaction wells were loaded in 60 μl volumes in triplicate wells of half-area, black-wall 96-well plates in assay buffer consisting of 50 mM Tris, 140 mM NaCl, 5 mM KCl, 1 mM CaCl2, 1 mM MgCl2, […] BSA, pH 8.0. […] Fluorescence was read every 2 minutes for 1 hour at excitation/emission wavelengths of 485/528 nm for FS-3 hydrolysis or 405 nm absorbance for pNP-TMP hydrolysis using a FlexStation 3 microplate reader (Molecular Devices, Sunnyvale, Calif.). Data (relative fluorescence or absorbance) were then recorded as a mean value of the triplicates for each sample versus time. […] In the case of mechanism determination, the linear fluorescence data from time 10 minutes to 30 minutes were then transformed using a carboxyfluorescein standard curve to determine product concentration and plotted separately. Linear trend lines were inserted using Microsoft Excel, the slope of which represent the rates of reaction for each substrate concentration. This reaction rate data for each inhibitor concentration were then plotted against substrate (FS-3) concentration and simultaneously fitted via non-linear regression in the Michaelis-Menten equations for competitive, non-competitive, uncompetitive, and mixed-mode inhibition using GraphPad Prism version 5.0a. Mechanism of inhibition was determined by which curve fit had the best global fit (R^2 value).

human recombinant ATX [2] = molecular target: T1, human recombinant ATX; experiment: ATX inhibition, hydrolysis of nucleotide substrate pNP-TMP; assay type: biochemical; conditions: 1 mM pNP-TMP, 4 nM ATX, compound 0 to 1 μM
Procedure: as §1, §2

Row | SMILES | IC50 (human recombinant ATX [1]) | pNP-TMP Inhibition (human recombinant ATX [2]) | ATX inhibitory activity (in words) (human recombinant ATX [1]) | fold IC50 improvement relative to screening hit 918013 (human recombinant ATX [1])
1 | O=S(=O)(c1cc(C(=S)Nc2cccc(F)c2)c(Cl)cc1Cl)N1CCOCC1 [Compound 12, 2,4-dichloro-N-(3-fluorophenyl)-5-(morpholinosulfonyl)benzothioamide] | 121.5 ± 1.02 nM | None | – | –
2 | O=S(=O)(c1cc(CNc2cc(F)c(F)c(F)c2)c(Cl)cc1Cl)N1CCOCC1 [Compound 11, N-(2,4-dichloro-5-(morpholinosulfonyl)benzyl)-3,4,5-trifluoroaniline] | 396 ± 44.1 nM | None | – | –
3 | O=C(Nc1cc(F)c(C(=O)O)c(F)c1)c1cc(S(=O)(=O)N2CCOCC2)c(Cl)cc1Cl [Compound 4, 4-(2,4-dichloro-5-(morpholinosulfonyl)benzamido)-2,6-difluorobenzoic Acid] | > 1000 nM | None | relatively inactive | –
4 | CN1CCN(S(=O)(=O)c2cc(C(=O)Nc3cc(F)c(F)c(F)c3)c(Cl)cc2Cl)CC1 [Compound 28a, 2,4-dichloro-5-((4-methylpiperazin-1-yl)sulfonyl)-N-(3,4,5-trifluorophenyl)-benzamide] | 66 nM and 66.9 nM | None | – | –
5 | CN(C(=O)c1cc(S(=O)(=O)N2CCOCC2)c(Cl)cc1Cl)c1cccc(F)c1 [Compound 9, 2,4-dichloro-N-(3-fluorophenyl)-N-methyl-5-(morpholinosulfonyl)benzamide] | – | – | low activity | –
6 | O=C(Nc1cc(F)c(F)c(F)c1Br)c1cc(S(=O)(=O)N2CCOCC2)c(Cl)cc1Cl [Compound 5, N-(2-bromo-3,4,5-trifluorophenyl)-2,4-dichloro-5-(morpholinosulfonyl)benzamide] | – | – | strong ATX inhibition | seven fold
7 | CN1CCN(S(=O)(=O)c2cc(C(=S)Nc3cc(Cl)c(F)c(Cl)c3)c(Cl)cc2Cl)CC1 [Compound 29, 2,4-dichloro-N-(3,5-dichloro-4-fluorophenyl)-5-((4-methylpiperazin-1-yl)sulfonyl)-benzothioamide] | 100 ± 8.11 nM | None | – | –
8 | CN1CCN(S(=O)(=O)c2cc(C(=O)Nc3cc(Cl)c(F)c(Cl)c3)c(Cl)cc2Cl)CC1 [Compound 28b, 2,4-dichloro-N-(3,5-dichloro-4-fluorophenyl)-5-((4-methylpiperazin-1-yl)sulfonyl)benzamide] | 55 nM and 55.5 nM | None | – | –
9 | O=S(=O)(c1cc(C(=S)Nc2cc(Cl)c(F)c(Cl)c2)c(Cl)cc1Cl)N1CCOCC1 [Compound 15, 2,4-dichloro-N-(3,5-dichloro-4-fluorophenyl)-5-(morpholinosulfonyl)-benzothioamide] | 83.1 ± 9.77 nM | None | – | –
10 | O=C(Nc1c(F)c(F)c(F)c(F)c1F)c1cc(S(=O)(=O)N2CCOCC2)c(Cl)cc1Cl [Compound 3c, 2,4-dichloro-5-(morpholinosulfonyl)-N-(perfluorophenyl)benzamide] | 1030 nM | None | poorly active | –
11 | O=S(=O)(c1cc(-c2nc3cccc(F)c3o2)c(Cl)cc1Cl)N1CCOCC1 [Compound 7, 2-(2,4-dichloro-5-(morpholinosulfonyl)phenyl)-7-fluorobenzo[d]oxazole] | – | – | inactive | –
12 | O=S(=O)(c1cc(C(=S)Nc2ccc(F)c(F)c2)c(Cl)cc1Cl)N1CCOCC1 [Compound 13, 2,4-dichloro-N-(3,4-difluorophenyl)-5-(morpholinosulfonyl)benzothioamide] | 67.3 ± 9.73 nM | None | – | –
13 | O=S(=O)(c1cc(-c2nc3cc(F)c(F)cc3[nH]2)c(Cl)cc1Cl)N1CCOCC1 [Compound 8, 4-((2,4-dichloro-5-(5,6-difluoro-1H-benzo[d]imidazol-2-yl)phenyl)sulfonyl)-morpholine] | – | – | inactive | –
